According to article PMC6631792, “In Vitro and In Vivo Anti-Breast Cancer Activities of Some Newly Synthesized 5-(thiophen-2-yl)thieno-[2,3-d]pyrimidin-4-one Candidates” (Molecules, 2019):

How the values were obtained:
[1] = Average animal weight in MCF-7 mouse xenograft model; format: in vivo; conditions: nude mice with MCF-7 xenograft, i.p.; for Average Weight of Animals in Grams after Days 0: day 0; for Average Weight of Animals in Grams after Days 2: day 2; for Average Weight of Animals in Grams after Days 4: day 4; for Average Weight of Animals in Grams after Days 6: day 6; for Average Weight of Animals in Grams after Days 8: day 8; for Average Weight of Animals in Grams after Days 10: day 10; for Average Weight of Animals in Grams after Days 12: day 12; for Average Weight of Animals in Grams after Days 14: day 14; for Average Weight of Animals in Grams after Days 16: day 16; for Average Weight of Animals in Grams after Days 18: day 18; for Average Weight of Animals in Grams after Days 20: day 20; for Average Weight of Animals in Grams after Days 22: day 22
Text: “In this work, MCF-7 mouse xenograft model was used. The animal protocol was approved by the Institutional Animal Use Ethics and Care Committee of the University of Alabama at Birmingham (50-01-05-08B). Female athymic pathogen-free nude mice (nu/nu, 4–6 weeks) were purchased from Frederick Cancer Research and Development Center (Frederick, MD, USA). To establish MCF-7 human breast cancer xenografts, each of the female nude mice was first implanted with a 60-day (subcutaneously, s.c.) slow release estrogen pellet (SE-121, 1.7 mg […]/pellet; Innovative Research of America, Sarasota, FL, USA). After 24 h, grown cells were harvested, washed twice with serum-free medium, resuspended, and injected subcutaneously (5 million cells/0.2 mL) into the left inguinal area of the mice. During the experiment, animals were checked periodically and the percentages of tumor growth, as well as animal weights, were recorded. Every 48 h, the size of the tumor was recorded by measuring two perpendicular diameters of the tumor and tumor volume was calculated according to Wang et al. [46]”.
“Treated animals and control groups (7–10 mice/group) received different compounds and vehicles, respectively. The tested compounds were dissolved in PEG400:ethanol:saline (57.1:14.3:28.6, v/v/v), and injected intraperitoneal (i.p.) at doses of […], 3 d/wk for 3 weeks. The higher dose (10 µM/kg/d, 3 d/wk) inhibited MCF-7 xenograft tumor growth”.

MCF-7 cells = test: MTT cytotoxic assay on MCF-7 cells; format: cell-based, Human; conditions: Homo sapiens, MCF7
Text: “Human breast cancer cells (MCF-7) and normal non-tumorigenic MCF-10A cells were used throughout the work. Cells were obtained from ATCC, Gaithersburg, MD, USA. Standard MTT assay was used to explore the possible cytotoxic effects of the synthesized compounds [41, 42]. Medium composition, cultivation conditions and assay performance were exactly the same as our previous work. […] After MTT addition, the absorbance of the dissolved formazan crystals was read at 570 nm. The IC50 values were obtained with linear regression equations using Origin® 6.1 software (Origin Lab Corporation, Northampton, MA, USA)”.

Average Weight of Animals in Grams after Days 0 [1] | Average Weight of Animals in Grams after Days 2 [1] | Average Weight of Animals in Grams after Days 4 [1] | Average Weight of Animals in Grams after Days 6 [1] | Average Weight of Animals in Grams after Days 8 [1] | Average Weight of Animals in Grams after Days 10 [1] | Average Weight of Animals in Grams after Days 12 [1] | Average Weight of Animals in Grams after Days 14 [1] | Average Weight of Animals in Grams after Days 16 [1] | Average Weight of Animals in Grams after Days 18 [1] | Average Weight of Animals in Grams after Days 20 [1] | Average Weight of Animals in Grams after Days 22 [1] | melting point | Structure (SMILES) | IC50 (MCF-7 cells)
23.7 Grams | 23.7 Grams | 23.6 Grams | 23.6 Grams | 23.5 Grams | 23.5 Grams | 23.5 Grams | 23.4 Grams | 23.4 Grams | 23.5 Grams | 23.5 Grams | 23.5 Grams | 248 to 250 °C | COc1cccc(C=NNC(=O)Cn2cnc3scc(-c4cccs4)c3c2=O)c1OC [Compound 6, N′-(2,3-Dimethoxybenzylidene)-2-(4-oxo-5-(thiophen-2-yl)thieno[2,3-d]pyrimidin-3(4H)-yl)-acetohydrazide] | 4.52 ± 0.085 µM
24.2 Grams | 24.2 Grams | 24.1 Grams | 24.0 Grams | 23.9 Grams | 23.9 Grams | 23.7 Grams | 23.7 Grams | 23.6 Grams | 23.6 Grams | 23.6 Grams |  | 205 to 207 °C | NNC(=O)Cn1cnc2scc(-c3cccs3)c2c1=O [Compound 4, 2-(4-oxo-5-(thiophen-2-yl)thieno[2,3-d]pyrimidin-3(4H)-yl)acetohydrazide] | 4.87 ± 0.098 µM
24.1 Grams | 24.1 Grams | 24.0 Grams | 24.0 Grams | 24.0 Grams | 24.0 Grams | 23.7 Grams | 23.7 Grams | 23.6 Grams | 23.6 Grams | 23.6 Grams | 23.6 Grams | 175 to 177 °C | O=C(Cn1cnc2scc(-c3cccs3)c2c1=O)NN1C(=O)CSC1c1ccc(Cl)cc1 (stereo not shown) [Compound 9, N-(2-(4-Chlorophenyl)-4-oxothiazolidin-3-yl)-2-(4-oxo-5-(thiophen-2-yl)thieno[2,3-d]-pyrimidin-3(4H)-yl)-acetamide] | 2.37 ± 0.053 µM
27.3 Grams | 27.3 Grams | 27.2 Grams | 27.2 Grams | 27.2 Grams | 27.1 Grams | 27.1 Grams | 27.1 Grams | 27.0 Grams | 27.0 Grams | 27.0 Grams | 27.0 Grams | 250 to 252 °C | O=C(Cn1cnc2scc(-c3cccs3)c2c1=O)NN=Cc1ccc(Cl)cc1 [Compound 7, N′-(4-Chlorobenzylidene)-2-(4-oxo-5-(thiophen-2-yl)thieno[2,3-d]pyrimidin-3(4H)-yl)acetohydrazide] | 4.33 ± 0.076 µM
